This passage reports GI50 results from ChEMBL document CHEMBL1821633, “Norcantharimide analogues possessing terminal phosphate esters and their anti-cancer activity” (2011).

Holding throughout (type): functional
One assay relates to HT-29. Kind of assay: Antiproliferative activity against human HT-29 cells after 72 hrs by MTT assay. To be noted: HT-29, 72 h.
For another assay, the system named is NCI-H460. The assay is described as follows: Antiproliferative activity against human H460 cells after 72 hrs by MTT assay. To be noted: NCI-H460, 72 h.
A further assay concerns MCF7. The assay is described as follows: Antiproliferative activity against human MCF7 cells after 72 hrs by MTT assay. To be noted: MCF7, 72 h.
In another assay the test system is A-431. Kind of assay: Antiproliferative activity against human A431 cells after 72 hrs by MTT assay. The conditions noted are these: A-431, 72 h.
The nature of assay [1]: Antiproliferative activity against human BE(2)-C cells after 72 hrs by MTT assay.
Another assay deals with DU-145. The assay is described as follows: Antiproliferative activity against human DU145 cells after 72 hrs by MTT assay. To be noted: DU-145, 72 h.
Assay [2] in a line: Antiproliferative activity against human SJ-G2 cells after 72 hrs by MTT assay. The conditions noted are these: SJ-G2, 72 h.
The subject of another assay is SW480. Kind of assay: Antiproliferative activity against human SW480 cells after 72 hrs by MTT assay. The conditions noted are these: SW480, 72 h.
A further assay concerns A2780. Kind of assay: Antiproliferative activity against human A2780 cells after 72 hrs by MTT assay. To be noted: A2780, 72 h.

Consider `O=C1[C@@H]2[C@H](C(=O)N1CCCOP(=O)(OCC(Cl)(Cl)Cl)OCC(Cl)(Cl)Cl)[C@H]1CC[C@@H]2O1`, for which the 50% growth inhibitory concentration (GI50) in the assay with HT-29 was 57 µM; in the assay on NCI-H460 it was 78 µM; in the assay with MCF7, 60 µM; with A-431 it was 80 µM; in assay [1] it was 50 µM; in the assay on DU-145 it was greater than 100 µM. For the same molecule, the figures for the GI50 (in assay [2]; with SW480; in the assay with A2780) were 58 µM, 72 µM and 47 µM, respectively.
Regarding `O=C1[C@@H]2[C@H](C(=O)N1CCCCOP(=O)(Oc1ccccc1)Oc1ccccc1)[C@H]1CC[C@@H]2O1`, the GI50 in the assay on HT-29 amounted to 14 µM; in the assay with NCI-H460 it was 64 µM; in the assay with MCF7, 19 µM; with A-431, 21 µM; in assay [1], 25 µM; in the assay with DU-145, 13 µM. For the same molecule, the GI50 in assay [2] was found to be 17 µM; with SW480, 28 µM; in the assay with A2780 it was 17 µM.
As to `CCOP(=O)(OCC)OCCCCN1C(=O)[C@@H]2[C@H](C1=O)[C@H]1CC[C@@H]2O1`, the GI50 (in the assay on HT-29; with NCI-H460; in the assay with MCF7; in the assay on A-431; in [1]; in the assay on DU-145) was greater than 100 µM each time. The GI50 (in assay [2]; in the assay with SW480; in the assay on A2780) was greater than 100 µM each time.
For the molecule `O=C1[C@@H]2[C@H](C(=O)N1CCOP(=O)(Oc1ccccc1)Oc1ccccc1)[C@H]1CC[C@@H]2O1`, the 50% growth inhibitory concentration (GI50) (with HT-29; in the assay on NCI-H460; in the assay with MCF7; in the assay on A-431; in assay [1]; with DU-145) was greater than 100 µM throughout. For the same molecule, the GI50 (in assay [2]; with SW480; with A2780) was greater than 100 µM in each case.
For the molecule `CCOP(=O)(OCC)OCCCCCN1C(=O)[C@@H]2[C@H](C1=O)[C@H]1CC[C@@H]2O1`, the GI50 (with HT-29; in the assay with NCI-H460; in the assay on MCF7; in the assay with A-431; in assay [1]; with DU-145) was greater than 100 µM in each case. Further, the GI50 (in [2]; with SW480; with A2780) was greater than 100 µM throughout.
Consider `O=C1[C@@H]2[C@H](C(=O)N1CCO)[C@H]1CC[C@@H]2O1`, for which the GI50 (with HT-29; with NCI-H460; with MCF7; with A-431; in [1]; in the assay on DU-145) was greater than 100 µM in each case. The GI50 (in assay [2]; with SW480; in the assay on A2780) was greater than 100 µM throughout.
With `O=C1[C@@H]2[C@H](C(=O)N1CCCCOP(=O)(OCC(Cl)(Cl)Cl)OCC(Cl)(Cl)Cl)[C@H]1CC[C@@H]2O1`, the 50% growth inhibitory concentration (GI50) in the assay on HT-29 is 16 µM; in the assay with NCI-H460 it was 56 µM; in the assay on MCF7 it was 28 µM; in the assay with A-431, 31 µM; in [1], 40 µM; in the assay on DU-145, 49 µM. The GI50 was 48 µM in [2], 32 µM in the assay on SW480 and 26 µM in the assay on A2780.
For the molecule `O=C1[C@@H]2[C@H](C(=O)N1CCCCCOP(=O)(OCC(Cl)(Cl)Cl)OCC(Cl)(Cl)Cl)[C@H]1CC[C@@H]2O1`, the GI50 in the assay with HT-29 stood at 15 µM; with NCI-H460, 29 µM; in the assay on MCF7, 16 µM; with A-431 it was 18 µM; in [1], 22 µM; in the assay with DU-145 it was 26 µM. Besides, the figures for the GI50 (in assay [2]; in the assay on SW480; in the assay on A2780) were 19 µM, 17 µM and 16 µM, respectively.
Take `O=C1[C@@H]2[C@H](C(=O)N1CCCCCCO)[C@H]1CC[C@@H]2O1`: the GI50 (in the assay with HT-29; in the assay on NCI-H460; in the assay with MCF7; with A-431; in assay [1]; in the assay with DU-145) was greater than 100 µM in each case. The GI50 (in [2]; in the assay on SW480; with A2780) was greater than 100 µM each time.
With `O=C1[C@@H]2[C@H](C(=O)N1CCCCCOP(=O)(Oc1ccccc1)Oc1ccccc1)[C@H]1CC[C@@H]2O1`, the GI50 in the assay on HT-29 is 42 µM; with NCI-H460 it was 63 µM; in the assay with MCF7, 31 µM; in the assay with A-431 it was 45 µM; in assay [1], 56 µM; in the assay with DU-145 it was 52 µM. In addition, the results for the concentration for 50% growth inhibition (GI50) (in assay [2]; in the assay on SW480; in the assay with A2780) were 50 µM, 50 µM and 46 µM, respectively.
In the case of `O=C1c2ccccc2C(=O)N1CCCOP(=O)(Oc1ccccc1)Oc1ccccc1`, the GI50 (in the assay with HT-29; in the assay on NCI-H460; in the assay on MCF7; with A-431; in assay [1]; in the assay with DU-145) was greater than 100 µM throughout. The GI50 (in assay [2]; in the assay with SW480; with A2780) was greater than 100 µM in each case.
Turning to `CCOP(=O)(OCC)OCCN1C(=O)[C@@H]2[C@H](C1=O)[C@H]1CC[C@@H]2O1`, the GI50 in the assay with HT-29 was found to be 33 µM; in the assay on NCI-H460, 49 µM; in the assay on MCF7, 28 µM; in the assay with A-431, 27 µM; with DU-145, 21 µM; in assay [2], 43 µM. Moreover, the GI50 with SW480 was determined as 18 µM; in the assay with A2780, 15 µM.
Take `O=C1[C@@H]2[C@H](C(=O)N1CCCCCCOP(=O)(Oc1ccccc1)Oc1ccccc1)[C@H]1CC[C@@H]2O1`: the GI50 with HT-29 turned out to be 5.4 µM; in the assay with NCI-H460, 25 µM; in the assay on MCF7, 9.1 µM; with A-431, 13 µM; in [1], 14 µM; in the assay with DU-145, 7 µM. In addition, the GI50 in assay [2] came to 14 µM; with SW480, 14 µM; in the assay with A2780 it was 11 µM.
As to `O=C1OC(=O)C2C3CCC(O3)C12` (stereo not drawn) [DEMETHYL-CANTHARIDIN], the GI50 stood at 57 µM with HT-29; 45 µM in the assay with NCI-H460; 68 µM with MCF7; 31 µM with A-431; 43 µM in [1]; 28 µM with DU-145. Further, the GI50 stood at 23 µM in assay [2], 44 µM in the assay on SW480 and 38 µM in the assay on A2780.
For the molecule `O=C1[C@@H]2[C@H](C(=O)N1CCCCCCOP(=O)(OCC(Cl)(Cl)Cl)OCC(Cl)(Cl)Cl)[C@H]1CC[C@@H]2O1`, the GI50 in the assay on HT-29 was 11 µM; in the assay with NCI-H460 it was 13 µM; with MCF7 it was 12 µM; in the assay with A-431, 12 µM; in assay [1], 9.3 µM; in the assay with DU-145, 13 µM. Further, the GI50 was found to be 14 µM in assay [2], 10 µM in the assay with SW480 and 7.7 µM in the assay with A2780.
For `CCOP(=O)(OCC)OCCCCCCN1C(=O)[C@@H]2[C@H](C1=O)[C@H]1CC[C@@H]2O1`, the 50% growth inhibitory concentration (GI50) (in the assay with HT-29; in the assay with NCI-H460; with MCF7; in the assay with A-431; in [1]; with DU-145) was greater than 100 µM each time. For the same molecule, the GI50 (in assay [2]; with SW480; in the assay with A2780) was greater than 100 µM each time.
Consider `O=C1[C@@H]2[C@H](C(=O)N1[C@H]1CCCC[C@@H]1OP(=O)(OCC(Cl)(Cl)Cl)OCC(Cl)(Cl)Cl)[C@H]1CC[C@@H]2O1`, for which the GI50 in the assay with HT-29 was 56 µM; in the assay with NCI-H460, greater than 100 µM; with MCF7, 54 µM; in the assay on A-431, 48 µM; in [1] it was 51 µM; in the assay on DU-145, 69 µM. Further, the results for the GI50 (in [2]; with SW480; with A2780) were 45 µM, 69 µM and 39 µM, respectively.
With `CCOP(=O)(OCC)O[C@H]1CCCC[C@@H]1N1C(=O)[C@@H]2[C@H](C1=O)[C@H]1CC[C@@H]2O1`, the GI50 was determined as 57 µM in the assay on HT-29; 89 µM in the assay on NCI-H460; 50 µM in the assay on MCF7; 47 µM in the assay with A-431; 31 µM in assay [1]; 36 µM in the assay with DU-145. The values for the GI50 (in [2]; in the assay with SW480; with A2780) were 60 µM, 33 µM and 22 µM, respectively.
In the case of `O=C1[C@@H]2[C@H](C(=O)N1[C@H]1CCCC[C@@H]1OP(=O)(Oc1ccccc1)Oc1ccccc1)[C@H]1CC[C@@H]2O1`, the GI50 stood at 11 µM with HT-29; 48 µM with NCI-H460; 14 µM in the assay with MCF7; 26 µM in the assay with A-431; 28 µM in [1]; 35 µM in the assay on DU-145. The figures for the GI50 (in assay [2]; with SW480; in the assay on A2780) were 31 µM, 26 µM and 24 µM, respectively.
Consider `O=C1[C@@H]2[C@H](C(=O)N1CCCOP(=O)(Oc1ccccc1)Oc1ccccc1)[C@H]1CC[C@@H]2O1`, for which the GI50 (in the assay with HT-29; in the assay with NCI-H460; in the assay on MCF7; with A-431; in assay [1]; in the assay on DU-145) was greater than 100 µM throughout. Besides, the concentration for 50% growth inhibition (GI50) (in assay [2]; in the assay with SW480; in the assay with A2780) was greater than 100 µM in each case.
As to `O=C1[C@@H]2[C@H](C(=O)N1CCOP(=O)(OCC(Cl)(Cl)Cl)OCC(Cl)(Cl)Cl)[C@H]1CC[C@@H]2O1`, the GI50 (with HT-29; in the assay with NCI-H460; in the assay on MCF7; in the assay with A-431; in assay [1]; in the assay with DU-145) was greater than 100 µM throughout. Also, the GI50 (in assay [2]; in the assay with SW480; in the assay with A2780) was greater than 100 µM in each case.
